Results reported in publication PMC3767473 (Angewandte Chemie (International ed. in English), 2013).
Numbered stars: 1 amine (or outer) side, 2 acyl side, 3 side chain; on linkers, the order of the positions; unused ones are H or OH. Bridge positions count the residues as written; N and C are the ends. Square brackets hold non-standard residues; d marks the D form. Side chains are listed from the residue outwards. Peptide text beside a SMILES is read from it. * marks the point of attachment. X1 = O=C([C@H](Cc1ccc(-n2nnc3c2-c2ccccc2CN([*:3])c2ccccc2-3)cc1)N[*:1])[*:2]; X2 = Cc1c(CC(=O)*)c(=O)oc2cc(N)ccc12; βAla = NCCC(=O)O

Tests used:
[1] = system: porcine pancreatic trypsin; test: Binding to commercial porcine pancreatic trypsin; details: Fig. S8
[2] = cited from earlier work

Molecule	binding to porcine pancreatic trypsin ([1]; commercial trypsin)	effect of the fluorophore in loop 2 on biological activity ([1]; trypsin binding)	oral uterotonic activity [2]
CC[C@H](C)[C@@H]1NC(=O)[C@@H]2CSSC[C@@H]3NC(=O)[C@H](C(C)C)NC(=O)CNC(=O)CNC(=O)[C@H](CC(=O)O)NC(=O)[C@H](CO)NC(=O)CNC(=O)[C@H](CO)NC(=O)CNC(=O)[C@@H]4CSSC[C@H](NC(=O)[C@H](CC(=O)O)NC(=O)[C@H](CO)NC(=O)[C@H](Cc5ccc(-n6nnc7c6-c6ccccc6CN(C(=O)CCNC(=O)Cc6c(C)c8ccc(N)cc8oc6=O)c6ccccc6-7)cc5)NC(=O)[C@H](CCCNC(=N)N)NC(=O)[C@H](CCCNC(=N)N)NC(=O)[C@H](CSSC[C@H](NC1=O)C(=O)N[C@@H](CCCNC(=N)N)C(=O)NCC(=O)N[C@@H](CC(N)=O)C(=O)NCC(=O)N[C@@H](Cc1ccc(O)cc1)C(=O)N4)NC(=O)[C@H](CCCNC(=N)N)NC(=O)[C@H](CCC(N)=O)NC(=O)[C@H](CC(C)C)NC(=O)[C@H]([C@@H](C)CC)NC(=O)[C@H](CCCCN)NC(=O)[C@@H]1CCCN1C3=O)C(=O)N1CCC[C@H]1C(=O)NCC(=O)N[C@@H](C)C(=O)N2 [AMCA-labeled MCoTI-AziF] (cyclo(ACICRGNGYCGSGSDGGVCPKILQRCRR[X1]([βAla-X2])SDCPG); disulfide 2-19, 4-26, 10-32)	able to bind commercial porcine pancreatic trypsin efficiently	did not have a detrimental effect on its biological activity	–
kalata B1: the first cyclotide to be discovered (GLPVCGETCVGGTCNTPGCTCSWPVCTRN; Kalata-B1; UniProt P56254 89-117, looked up)	–	–	orally effective uterotonic
